This assay addresses Mushroom Tyrosinase (Agaricus bisporus, UniProt C7FF04). Description: Comparative tyrosinase inhibitory activity (dopachrome optical density at 475 nm). Format: biochemical.

Sequence of Mushroom Tyrosinase (C7FF04 1-392): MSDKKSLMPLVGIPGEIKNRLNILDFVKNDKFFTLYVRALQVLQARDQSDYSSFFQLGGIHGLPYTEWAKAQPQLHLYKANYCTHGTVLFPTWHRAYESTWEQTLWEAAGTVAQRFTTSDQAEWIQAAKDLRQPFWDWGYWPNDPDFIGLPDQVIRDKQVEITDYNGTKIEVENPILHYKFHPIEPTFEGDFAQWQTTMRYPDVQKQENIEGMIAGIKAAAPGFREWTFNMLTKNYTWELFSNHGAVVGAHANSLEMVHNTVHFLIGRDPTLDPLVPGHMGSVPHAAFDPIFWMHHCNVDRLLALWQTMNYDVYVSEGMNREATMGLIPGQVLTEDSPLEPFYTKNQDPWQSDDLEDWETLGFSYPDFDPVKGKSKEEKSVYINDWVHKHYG
Sequence of Mushroom Tyrosinase (G1K3P4 entry or part of it, further chain): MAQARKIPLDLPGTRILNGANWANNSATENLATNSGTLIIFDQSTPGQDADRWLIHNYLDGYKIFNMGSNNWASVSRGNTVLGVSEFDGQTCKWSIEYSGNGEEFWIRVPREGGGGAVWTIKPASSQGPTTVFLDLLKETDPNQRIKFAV
Method: All measurements were performed at room temperature (24 C) with a Beckman Coulter DU-640 spectrophotometer at a scan speed of 1200 nm/min with a spectral range from 300 to 700 nm.
Buffer solution • KH2PO4 99.8% & KOH 85+% (pH 7.4, 100 mM) • Mol. Wt. 136.09, VWR and Sigma-Aldrich • KH2PO4 (1362 mg) dissolved in distilled water (100 ml) and pH adjusted to 7.4 with a 2 M KOH solution • 2. Mushroom Tyrosinase solution (240 units per 1 ml) • 2440 units/mg, Sigma-Aldrich • Tyrosinase (2.5 mg) dissolved in 25 ml of distilled water • 3. L-DOPA solution (6.3 mM) • Mol. Wt. 197, Sigma-Aldrich • 33.1 mg are dissolved in distilled water (25 ml) • 4. L-Tyrosine solution (1.3 mM) • Mol. Wt. 181.2, Sigma-Aldrich • 23.5 mg are dissolved in distilled water (100 ml) • 5. Hydrogen peroxide solution (5 mM) • Sigma-Aldrich • 1/100 of 0.9/25 vol. dilution of a 50% wt. solution b) Skin Lightening Ingredients • 5. Emblica™ antioxidant (5 mM)—Lot # CA0106007 • Average Mol. Wt. 729, EMD Chemicals / Merck KGaA • Emblica (18.2 mg) dissolved in distilled water (5 ml) • 6. […]
The stock solutions were added in an orderly manner with quantities according to Table 1 as to obtain a final total volume of 3.0 ml for each preparation. […] After 15 min of reaction time, the spectra were recorded between 300 and 700 nm and the optical density at 475 nm (Dopachrome) measured.

Take `Oc1ccc(O)cc1` [Hydroquinone]: the “inhibitory activity against tyrosinase (in words)” value is listed as “less effective” (DOPA as substrate) and “excellent inhibitory activity” (tyrosine used as a substrate).

These data come from patent US20070020203A1, “Skin care composition” (priority 2005, published 2007).
